Experimental data: patent publication US20070184021A1, “Use of caspase inhibitors as a therapeutic agent against radiation-induced injury” (priority 2002, published 2007)
Residues, ends and D or L forms follow the SMILES beside them. *: point of attachment. Cbz = O=C(OCc1ccccc1)*; CH2F = FC*

Tests used:
Lin− Sca1− c-kit+ cells = experiment: Apoptosis assay, annexin V/7-AAD flow cytometry of irradiated Lin- cells, progenitor gate; format: cell-based, mouse
Experimental: (§1) Isolation of lineage negative hematopoietic (Lin) cells: BM mononuclear cells were incubated with biotin-conjugated rat antibodies specific for murine CD5, Mac-1, CD45R/B220, Ter-119 and Gr-1. The labeled mature lymphoid and myeloid cells were removed twice after they were incubated with goat anti-rat IgG paramagnetic beads (Dynal Inc, Lake Success, N.Y.) at a bead:cell ratio of approximately 4:1 and exposed to a magnetic field. The isolated Lin- cells were washed twice with 2% FCS/HBSS and resuspended in complete medium (RPMI1640 medium with 10%FCS, 200 mM L-glutamine and 100 U/ml penicillin and streptomycin) at 1×10^6/ml.
(§2) Ionizing radiation (IR). Aliquots of 2 ml of Lin- cells (1×10^6/ml in complete medium) were placed into a cell culture tube and exposed to 4 Gy IR on a rotating platform in a Mark IV^137Cesium gamma-irradiator (JL Shepherd, Glendale, Calif.) at a dose rate of 1.21 Gy/min.
(§3) Apoptosis assays. Lin^− cells (1×10^6/ml in complete medium) were exposed to 4 Gy IR or non-irradiated (Control). They were incubated in wells of a 24-well plate at 37° C., 5% CO2 and 100% humidity for 6 or 18 h. For z-VAD treatment studies, the cells were pre-incubated with vehicle (0.2% DMSO) or 100 μM z-VAD for 1 h prior to IR exposure, or they were treated with z-VAD immediately before or 30 min, 1 h, 2 h or 4 h after IR exposure. After 6 or 18 h incubation, 0.5 ml cells ([…]) were washed once with 1 ml 0.1% BSA/PBS. The cells were centrifuged for 5 min, 350× g at 4° C. Next, the cells were incubated with anti-CD16/32 at 4° C. for 15 min to block the Fcγ receptors and then stained with Sca-1-PE and c-kit-APC antibodies for 20 min at 4° C. in the dark. The cells were washed twice with 1 ml 0.1% BSA/PBS, centrifuged for 5 min, 350× g at RT. Next, 100 μl 1× binding buffer (10 mM HEPES, pH 7.4, 140 mM NaCl, and 2.5 mM CaCl2) was added to the pellet along with 3 μl Annexin V-FITC (Pharmingen, San Diego, Calif.) and 5 μl 7-AAD (10 μg/ml, from Molecular Probes, Eugene, Oreg.). The cell suspension was gently mixed and incubated for 15 min at room temperature. The cells were diluted in 400 μl 1× binding buffer immediately prior to subjection of FACS analysis. In all experiments, PE and APC isotype controls and FITC and 7-AAD positive controls were included as appropriate. Two or four-color flow cytometric analyses were performed using a FACS Caliber (Becton Dickinson, San Jose, Calif.).

Male C57BL/6 mice = experiment: Protection of mice from IR-induced lethality; format: in vivo, mouse
Experimental: FIG. 9. z-VAD protects mice from IR-induced lethality. Male C57BL/6 mice were given two i.p. injections of vehicle (0.25 ml PBS with 0.2% DMSO) or z-VAD (6 mg/kg) at one hour prior to and 5 h after exposure to a lethal dose of IR (10.5 Gy). The survival of these mice was monitored daily up to 24 days after exposure to IR. n=6 mice/group).
z-VAD protects mice from IR-induced lethality. Finally, the inventors examined if z-VAD acts as a radioprotectant to protect mice from IR-induced death. Male C57BL/6 mice were given two i.p. injections of vehicle (0.25 ml PBS with 0.2% DMSO) or z-VAD (6 mg/kg) at one hour prior to and 5 h after exposure to a lethal dose of IR (10.5 Gy). […] In contrast, 50% mice receiving z-VAD injections remain alive up to today (24 days) after IR.

mouse BM cells = experiment: Cobblestone area-forming cell (CAFC) assay of irradiated BM cells; format: cell-based; conditions: 100 μM z-VAD 1 h prior to 4 Gy IR
Experimental: FIGS. 8A-B. z-VAD partially protects HSC from IR-induced suppression of hematopoietic function. BM cells were pre-incubated with vehicle or 100 μM z-VAD for 1 h and then were exposed to 4 Gy IR. BM cells without IR were used as control. Six hours after the IR, the cells were overlaid on FBMD-1 stromal cell layers. The frequency of CAFC was determined on 7, 14, 21, 28 and 35 days after IR. FIG. 8A—Frequency of CAFC. FIG. 8B—Survival fraction of CAFC as compared to that of control cells. The data presented are mean +/− SEM (n=3 individual mice/groups). Vehicle/IR vs z-VAD/IR, p<0.01 by ANOVA.
z-VAD protects HSC from IR-induced suppression of hematopoietic function. To determine if inhibition of IR-induced HSC apoptosis by z-VAD preserves their hematopoietic function, mouse BM cells were pre-incubated with vehicle (0.2% DMSO) or z-VAD (100 μM) one hour prior to exposure to IR (4 Gy). The hematopoietic function of these cells were analyzed by cobblestone area-forming cell (CAFC) assay (Ploemacher et al., 1989). This in vitro assay provides an estimate of the hematopoietic function of a spectrum of CAFC day-types that correspond to CFU-granulocyte macrophage (CFU-GM) (CAFC day 7), CFU-spleen (CFU-S) day-12 (CAFC day 14), and the primitive HSC with long-term repopulating ability (CAFC day 28-35) (Ploemacher et al., 1989).

Lin− Sca1+ c-kit+ cells = experiment: Apoptosis assay, annexin V/7-AAD flow cytometry of irradiated Lin- cells, HSC gate; format: cell-based, mouse; conditions: for IR-induced apoptosis: 4 Gy
Experimental: as §1, §2, §3

[1] = 100 μM z-VAD 1 h prior to 4 Gy IR
[2] = 100 μM z-VAD 1 h prior to 4 Gy IR, 6 and 18 h post IR

Structure (SMILES): COC(=O)C[C@H](NC(=O)[C@H](C)NC(=O)[C@@H](NC(=O)OCc1ccccc1)C(C)C)C(=O)CF [z-VAD, Z-Val-Ala-Asp (OCH3)-Fluoromethylketone, methyl ester] (Cbz-Val-Ala-Asp(OMe)-CH2F)
- necrotic cell death (7-AAD+ cells) (Lin− Sca1− c-kit+ cells; [1]): did not lead to an increase
- IR-induced apoptosis (annexin V+ and annexin V+/7-AAD+ cells) (Lin− Sca1− c-kit+ cells; 100 μM z-VAD 1 h prior to 4 Gy IR, 6 and 18 h after IR): attenuated
- IR-induced reduction of cell numbers (Lin− Sca1− c-kit+ cells; [2]): only partially protected
- numbers of cells as percentage of un-irradiated control cells (Lin− Sca1− c-kit+ cells; 100 μM z-VAD 1 h prior to 4 Gy IR, 18 h post IR): about 29%
- IR-induced apoptosis, compared with the effect in Lin− Sca1+ c-kit+ cells (Lin− Sca1− c-kit+ cells; 100 μM z-VAD given -1 h to 4 h relative to 4 Gy IR): to a less extent
- mice alive after IR (Male C57BL/6 mice; z-VAD 6 mg/kg i.p. 1 h prior to and 5 h after 10.5 Gy IR, 24 days after IR, n=6): 50%
- protection from IR-induced death (Male C57BL/6 mice; z-VAD 6 mg/kg i.p. twice, 1 h prior to and 5 h after 10.5 Gy IR): protected half
- CAFC frequency and survival fraction vs vehicle-treated cells exposed to IR (mouse BM cells; p<0.01): significantly increased
- survival fraction of CAFC relative to vehicle-treated cells (mouse BM cells; CAFC day 7-35): about 2 fold
- survival fraction of CAFC (mouse BM cells; CAFC day 7): 0.211
- survival fraction of CAFC (mouse BM cells; CAFC day 14): 0.058
- survival fraction of CAFC (mouse BM cells; CAFC day 21): 0.148
- survival fraction of CAFC (mouse BM cells; last value of the list, CAFC day 28 or 35 (four values printed for five days)): 0.453
- necrotic cell death (7-AAD+ cells) (Lin− Sca1+ c-kit+ cells; [1]): did not lead to an increase
- IR-induced reduction of cell numbers (Lin− Sca1+ c-kit+ cells; [2]): completely prevented
- IR-induced apoptosis (annexin V+ and annexin V+/7-AAD+ cells) (Lin− Sca1+ c-kit+ cells; 100 μM z-VAD 1 h prior to 4 Gy IR, 6 h after IR): significantly inhibited
- IR-induced apoptosis (annexin V+ and annexin V+/7-AAD+ cells) (Lin− Sca1+ c-kit+ cells; 100 μM z-VAD 1 h prior to 4 Gy IR, 18 h after IR): completely protected
- IR-induced apoptosis (Lin− Sca1+ c-kit+ cells; 100 μM z-VAD given at 4 h post IR): only partially inhibited
- IR-induced apoptosis (Lin− Sca1+ c-kit+ cells; 100 μM z-VAD given prior to IR (-1 h) or up to 2 h post IR): abrogated
